# Data as given in article PMC5218480 (PLoS ONE, 2017).
# System: MV-4-11 cells
# Assay: Gene expression microarray analysis (Affymetrix PrimeView) and GSEA
# Assay type: cell-based, human
# Design: RFU PODN (11730768_x_at) / Fold change /veh PODN (11730768_x_at) / RFU LINC00158 (11744669_a_at) / Fold change /veh LINC00158 (11744669_a_at) / RFU DUSP10 (11751237_a_at) / Fold change /veh DUSP10 (11751237_a_at) / RFU ID3 (11757404_x_at) / Fold change /veh ID3 (11757404_x_at) / RFU PLEKHG5 (11737974_s_at) / Fold change /veh PLEKHG5 (11737974_s_at) / RFU LRRC4B (11730491_at) / Fold change /veh LRRC4B (11730491_at) / RFU GIMAP4 (11747438_a_at) / Fold change /veh GIMAP4 (11747438_a_at) / RFU KRT8 (11758183_x_at) / Fold change /veh KRT8 (11758183_x_at) / RFU CNN1 (11734310_a_at) / Fold change /veh CNN1 (11734310_a_at) / RFU VPS37D (11726825_at) / Fold change /veh VPS37D (11726825_at) / RFU C10orf10 (11716522_x_at) / Fold change /veh C10orf10 (11716522_x_at) / RFU KIR2DL2 /// KIR2DL4 /// KIR2DL5A /// KIR2DL5B /// KIR2DS1 /// KIR2DS2 /// KIR2DS3 /// KIR2DS4 /// KIR3DL3 /// KIR3DL3 /// KIR3DS1 (11738374_at) / Fold change /veh KIR2DL2 /// KIR2DL4 /// KIR2DL5A /// KIR2DL5B /// KIR2DS1 /// KIR2DS2 /// KIR2DS3 /// KIR2DS4 /// KIR3DL3 /// KIR3DL3 /// KIR3DS1 (11738374_at) / RFU C1QL1 (11718748_at) / Fold change /veh C1QL1 (11718748_at) / RFU TMPRSS4 (11747572_a_at) / Fold change /veh TMPRSS4 (11747572_a_at) / RFU HAMP (11756126_x_at) / Fold change /veh HAMP (11756126_x_at) / RFU RNFT2 (11725882_a_at) / Fold change /veh RNFT2 (11725882_a_at) / RFU NR4A2 (11747474_a_at) / Fold change /veh NR4A2 (11747474_a_at) / RFU ABCC12 (11746883_a_at) / Fold change /veh ABCC12 (11746883_a_at) / RFU TMEM136 (11760407_x_at) / Fold change /veh TMEM136 (11760407_x_at) / RFU CLDN22 /// WWC2 (11732394_at) / Fold change /veh CLDN22 /// WWC2 (11732394_at) / RFU HLA-DPB1 (11760878_x_at) / Fold change /veh HLA-DPB1 (11760878_x_at) / RFU SPINT1 (11716480_a_at) / Fold change /veh SPINT1 (11716480_a_at) / RFU GAP43 (11754022_s_at) / Fold change /veh GAP43 (11754022_s_at) / RFU A4GNT (11735810_at) / Fold change /veh A4GNT (11735810_at) / RFU PRB3 (11715151_x_at) / Fold change /veh PRB3 (11715151_x_at) / RFU TUBB4B (11761932_at) / Fold change /veh TUBB4B (11761932_at) / RFU CAPN14 (11732068_a_at) / Fold change /veh CAPN14 (11732068_a_at) / RFU TMCC2 (11721928_a_at) / Fold change /veh TMCC2 (11721928_a_at) / RFU IRGQ (11745062_a_at) / Fold change /veh IRGQ (11745062_a_at) / RFU FAM174B (11720279_a_at) / Fold change /veh FAM174B (11720279_a_at) / RFU TMPRSS4 (11748680_a_at) / Fold change /veh TMPRSS4 (11748680_a_at) / RFU FAM212B (11763350_a_at) / Fold change /veh FAM212B (11763350_a_at) / RFU PLEKHG5 (11743358_a_at) / Fold change /veh PLEKHG5 (11743358_a_at) / RFU ZSCAN30 (11745921_a_at) / Fold change /veh ZSCAN30 (11745921_a_at) / RFU CMKLR1 (11741424_a_at) / Fold change /veh CMKLR1 (11741424_a_at) / RFU LOC101060620 /// MAPK8IP1 (11723275_at) / Fold change /veh LOC101060620 /// MAPK8IP1 (11723275_at) / RFU SPTSSB (11747773_x_at) / Fold change /veh SPTSSB (11747773_x_at) / RFU PRSS12 (11739890_at) / Fold change /veh PRSS12 (11739890_at) / RFU BIN1 (11741810_x_at) / Fold change /veh BIN1 (11741810_x_at) / RFU WNT11 (11732464_a_at) / Fold change /veh WNT11 (11732464_a_at) / RFU C10orf10 (11716521_a_at) / Fold change /veh C10orf10 (11716521_a_at) / RFU C5orf56 (11738089_at) / Fold change /veh C5orf56 (11738089_at) / RFU CYB561 (11721691_x_at) / Fold change /veh CYB561 (11721691_x_at) / RFU ANKRD19P (11752326_a_at) / Fold change /veh ANKRD19P (11752326_a_at) / RFU OR2T12 /// OR2T33 /// OR2T8 (11738714_s_at) / Fold change /veh OR2T12 /// OR2T33 /// OR2T8 (11738714_s_at) / RFU VCAN (11748164_a_at) / Fold change /veh VCAN (11748164_a_at) / RFU JSRP1 (11732532_at) / Fold change /veh JSRP1 (11732532_at) / RFU KRTAP10-11 (11738290_x_at) / Fold change /veh KRTAP10-11 (11738290_x_at) / RFU MYO3A (11730013_a_at) / Fold change /veh MYO3A (11730013_a_at) / RFU EBF3 (11725865_a_at) / Fold change /veh EBF3 (11725865_a_at) / RFU CAMK2N1 (11719241_x_at) / Fold change /veh CAMK2N1 (11719241_x_at) / RFU C5orf56 (11738088_a_at) / Fold change /veh C5orf56 (11738088_a_at) / RFU OLFML3 (11715873_a_at) / Fold change /veh OLFML3 (11715873_a_at) / RFU LOC100653217 /// NTM (11731650_a_at) / Fold change /veh LOC100653217 /// NTM (11731650_a_at) / RFU MAPK11 (11762145_a_at) / Fold change /veh MAPK11 (11762145_a_at) / RFU FIZ1 (11724087_x_at) / Fold change /veh FIZ1 (11724087_x_at) / RFU OASL (11726364_x_at) / Fold change /veh OASL (11726364_x_at) / RFU SOX15 (11748057_x_at) / Fold change /veh SOX15 (11748057_x_at) / RFU CD79A (11719716_a_at) / Fold change /veh CD79A (11719716_a_at) / RFU HIST1H1D (11736915_at) / Fold change /veh HIST1H1D (11736915_at) / RFU CASKIN2 (11723855_a_at) / Fold change /veh CASKIN2 (11723855_a_at) / RFU LOC730098 (11760151_x_at) / Fold change /veh LOC730098 (11760151_x_at) / RFU OR4N2 (11742367_at) / Fold change /veh OR4N2 (11742367_at) / RFU PRRT2 (11749266_a_at) / Fold change /veh PRRT2 (11749266_a_at) / RFU SNX32 (11753110_a_at) / Fold change /veh SNX32 (11753110_a_at) / RFU CDHR5 (11726645_a_at) / Fold change /veh CDHR5 (11726645_a_at) / RFU RCAN1 (11760418_a_at) / Fold change /veh RCAN1 (11760418_a_at) / RFU FAM167A (11723789_a_at) / Fold change /veh FAM167A (11723789_a_at) / RFU FAM26E (11764081_at) / Fold change /veh FAM26E (11764081_at) / RFU ISYNA1 (11749810_s_at) / Fold change /veh ISYNA1 (11749810_s_at) / RFU ACY1 (11761880_at) / Fold change /veh ACY1 (11761880_at) / RFU 11764098_at / Fold change /veh 11764098_at / RFU SAMD14 (11745864_x_at) / Fold change /veh SAMD14 (11745864_x_at) / RFU NPB (11741838_a_at) / Fold change /veh NPB (11741838_a_at) / RFU TMPRSS6 (11731388_a_at) / Fold change /veh TMPRSS6 (11731388_a_at) / RFU KRTAP10-2 (11738614_at) / Fold change /veh KRTAP10-2 (11738614_at) / RFU ARHGAP8 /// PRR5-ARHGAP8 (11727945_x_at) / Fold change /veh ARHGAP8 /// PRR5-ARHGAP8 (11727945_x_at) / RFU KRTAP5-7 /// NADSYN1 (11734609_at) / Fold change /veh KRTAP5-7 /// NADSYN1 (11734609_at) / RFU RASL12 (11751679_a_at) / Fold change /veh RASL12 (11751679_a_at) / RFU CDKN2B (11736163_a_at) / Fold change /veh CDKN2B (11736163_a_at) / RFU PRF1 (11729649_at) / Fold change /veh PRF1 (11729649_at) / RFU, ZNF638 /// ZNF638-IT1 / Fold change vs veh, ZNF638 /// ZNF638-IT1 / RFU, PANK3 / Fold change vs veh, PANK3 / RFU, SH3YL1 / Fold change vs veh, SH3YL1 / RFU, ZEB2 / Fold change vs veh, ZEB2 / RFU, NRIP1 / Fold change vs veh, NRIP1 / RFU, PTTG1IP / Fold change vs veh, PTTG1IP / RFU, CAPN2 / Fold change vs veh, CAPN2 / RFU, MED14 / Fold change vs veh, MED14 / RFU, SNORA58 / Fold change vs veh, SNORA58 / RFU, C1orf63 / Fold change vs veh, C1orf63 / RFU, LRRFIP1 / Fold change vs veh, LRRFIP1 / RFU, NDUFAF7 / Fold change vs veh, NDUFAF7 / RFU, SLC12A2 / Fold change vs veh, SLC12A2 / RFU, IBTK / Fold change vs veh, IBTK / RFU, ESF1 / Fold change vs veh, ESF1 / Fold change vs veh, TMEM50B / RFU, TAOK1 / Fold change vs veh, TAOK1 / RFU, ACBD3 / Fold change vs veh, ACBD3 / RFU, TMA16 / Fold change vs veh, TMA16 / RFU, RWDD3 / Fold change vs veh, RWDD3 / RFU, BCAT1 / Fold change vs veh, BCAT1 / RFU, EDEM3 / Fold change vs veh, EDEM3 / RFU, TMEM33 / Fold change vs veh, TMEM33 / RFU, WDR75 / Fold change vs veh, WDR75 / RFU, AHCTF1 / Fold change vs veh, AHCTF1 / RFU, TFRC / Fold change vs veh, TFRC / RFU, ZDHHC17 / Fold change vs veh, ZDHHC17 / RFU, NOM1 / Fold change vs veh, NOM1 / RFU, ARL8B / Fold change vs veh, ARL8B / RFU, ZBTB11 / Fold change vs veh, ZBTB11 / RFU, TAMM41 / Fold change vs veh, TAMM41 / RFU, KIAA1704 /// LOC100996395 / Fold change vs veh, KIAA1704 /// LOC100996395 / RFU, ING1 / Fold change vs veh, ING1 / RFU, TRMT61B / Fold change vs veh, TRMT61B / RFU, FUBP3 / Fold change vs veh, FUBP3 / RFU, TP53 / Fold change vs veh, TP53 / RFU, TNKS2 / Fold change vs veh, TNKS2 / RFU, ZFP14 / Fold change vs veh, ZFP14 / RFU, ACTR2 / Fold change vs veh, ACTR2 / RFU, PPP3R1 / Fold change vs veh, PPP3R1 / RFU, PIK3R1 / Fold change vs veh, PIK3R1 / RFU, HNRNPA1 / Fold change vs veh, HNRNPA1 / RFU, RNF170 / Fold change vs veh, RNF170 / RFU, ZNF28 / Fold change vs veh, ZNF28 / RFU, RNGTT / Fold change vs veh, RNGTT / RFU, OGT / Fold change vs veh, OGT / RFU, BRD1 / Fold change vs veh, BRD1 / RFU, MARS / Fold change vs veh, MARS / RFU, ZNF655 / Fold change vs veh, ZNF655 / RFU, FAHD1 / Fold change vs veh, FAHD1 / RFU, BDP1 / Fold change vs veh, BDP1 / RFU, LRRCC1 / Fold change vs veh, LRRCC1 / RFU, ARID1A / Fold change vs veh, ARID1A / RFU, ZNF146 / Fold change vs veh, ZNF146 / RFU, ZNF330 / Fold change vs veh, ZNF330 / RFU, GPN3 / Fold change vs veh, GPN3 / RFU, C9orf123 / Fold change vs veh, C9orf123 / RFU, N4BP2L2 / Fold change vs veh, N4BP2L2 / RFU, ARFIP1 / Fold change vs veh, ARFIP1 / RFU, FAM179B / Fold change vs veh, FAM179B / RFU, BCL10 / Fold change vs veh, BCL10 / RFU, UHRF1BP1L / Fold change vs veh, UHRF1BP1L / RFU, BET1 / Fold change vs veh, BET1 / RFU, CNOT2 / Fold change vs veh, CNOT2 / RFU, ZNF268 / Fold change vs veh, ZNF268 / Fold change vs veh, ZNF507 / RFU, DGCR2 / Fold change vs veh, DGCR2 / RFU, WDSUB1 / Fold change vs veh, WDSUB1 / Fold change vs veh, HSP90B1 /// MIR3652 / RFU, ADSS / Fold change vs veh, ADSS / RFU, GK / Fold change vs veh, GK / RFU, ZNF148 / Fold change vs veh, ZNF148 / RFU, TAF9 / Fold change vs veh, TAF9 / RFU, SLC1A5 / Fold change vs veh, SLC1A5 / RFU, SLMO2 / Fold change vs veh, SLMO2 / RFU, ABCC4 / Fold change vs veh, ABCC4 / RFU, LOC101060439 /// RAP1B / Fold change vs veh, LOC101060439 /// RAP1B / RFU, RFX7 / Fold change vs veh, RFX7 / RFU, GTPBP10 / Fold change vs veh, GTPBP10 / RFU, CNEP1R1 / Fold change vs veh, CNEP1R1 / RFU, BIVM-ERCC5 /// ERCC5 / Fold change vs veh, BIVM-ERCC5 /// ERCC5 / RFU, ILF3 / Fold change vs veh, ILF3 / RFU 11762660_at / Fold change /veh 11762660_at / RFU VCAN (11757783_s_at) / Fold change /veh VCAN (11757783_s_at) / RFU DDX43 (11728927_at) / Fold change /veh DDX43 (11728927_at) / RFU KRT8 (11758188_x_at) / Fold change /veh KRT8 (11758188_x_at) / RFU NKD1 (11759106_at) / Fold change /veh NKD1 (11759106_at) / RFU SRD5A1 (11742802_a_at) / Fold change /veh SRD5A1 (11742802_a_at) / RFU TPSAB1 /// TPSB2 (11721975_s_at) / Fold change /veh TPSAB1 /// TPSB2 (11721975_s_at) / RFU GSTM3 (11746129_a_at) / Fold change /veh GSTM3 (11746129_a_at) / RFU IL23R (11737362_x_at) / Fold change /veh IL23R (11737362_x_at) / RFU TMEM51 (11727254_a_at) / Fold change /veh TMEM51 (11727254_a_at) / RFU PIWIL2 (11732686_x_at) / Fold change /veh PIWIL2 (11732686_x_at) / RFU ORM1 (11744905_x_at) / Fold change /veh ORM1 (11744905_x_at) / RFU CCDC152 (11743942_at) / Fold change /veh CCDC152 (11743942_at) / RFU ECM1 (11717891_a_at) / Fold change /veh ECM1 (11717891_a_at) / RFU IL23R (11748794_a_at) / Fold change /veh IL23R (11748794_a_at) / RFU TNFAIP8L3 (11732012_x_at) / Fold change /veh TNFAIP8L3 (11732012_x_at) / RFU MBOAT4 (11741988_at) / Fold change /veh MBOAT4 (11741988_at) / RFU 11764193_at / Fold change /veh 11764193_at / RFU TMEM53 (11763286_at) / Fold change /veh TMEM53 (11763286_at) / RFU MAGEB2 (11727129_at) / Fold change /veh MAGEB2 (11727129_at) / RFU TMEM200A (11744735_a_at) / Fold change /veh TMEM200A (11744735_a_at) / RFU CCDC152 (11751479_a_at) / Fold change /veh CCDC152 (11751479_a_at) / RFU FAM211A (11726209_a_at) / Fold change /veh FAM211A (11726209_a_at) / RFU RGS16 (11746705_a_at) / Fold change /veh RGS16 (11746705_a_at) / RFU VCAN (11755009_s_at) / Fold change /veh VCAN (11755009_s_at) / RFU RHOB (11743442_s_at) / Fold change /veh RHOB (11743442_s_at) / RFU RGS16 (11720943_a_at) / Fold change /veh RGS16 (11720943_a_at) / RFU RGS16 (11720944_at) / Fold change /veh RGS16 (11720944_at) / RFU, VPS4B / Fold change vs veh, VPS4B / RFU, CREB1 / Fold change vs veh, CREB1 / RFU, DNAJC13 / Fold change vs veh, DNAJC13 / RFU, GNAQ / Fold change vs veh, GNAQ / RFU, CDK5R1 / Fold change vs veh, CDK5R1 / RFU, ZRANB3 / Fold change vs veh, ZRANB3 / RFU, CUL4A / Fold change vs veh, CUL4A / RFU, CCNY / Fold change vs veh, CCNY / RFU, UFL1 / Fold change vs veh, UFL1 / RFU, COG3 / Fold change vs veh, COG3 / RFU, DIAPH2 / Fold change vs veh, DIAPH2 / RFU, SKA2 / Fold change vs veh, SKA2 / RFU, AFF3 / Fold change vs veh, AFF3 / RFU, LMF1 / Fold change vs veh, LMF1 / RFU, IPO11 / Fold change vs veh, IPO11 / RFU, DFFB / Fold change vs veh, DFFB / RFU, FOXP1 / Fold change vs veh, FOXP1 / RFU, CARD8 / Fold change vs veh, CARD8 / RFU, STRN3 / Fold change vs veh, STRN3 / RFU, ADK / Fold change vs veh, ADK / RFU, RASSF2 / Fold change vs veh, RASSF2 / RFU, WIPF1 / Fold change vs veh, WIPF1 / RFU, LARP1B / Fold change vs veh, LARP1B / RFU, RASA1 / Fold change vs veh, RASA1 / RFU, RB1 / Fold change vs veh, RB1 / RFU, PPFIA1 / Fold change vs veh, PPFIA1 / RFU, MAT2A / Fold change vs veh, MAT2A / RFU, CCT5 / Fold change vs veh, CCT5 / RFU, WDR92 / Fold change vs veh, WDR92 / RFU, CUX1 / Fold change vs veh, CUX1 / RFU, TTC7A / Fold change vs veh, TTC7A / RFU, TMEM135 / Fold change vs veh, TMEM135 / RFU, DEPTOR / Fold change vs veh, DEPTOR / RFU, CPM / Fold change vs veh, CPM / RFU, DNAJB6 / Fold change vs veh, DNAJB6 / RFU, CACNA2D3 / Fold change vs veh, CACNA2D3 / RFU, DTX4 / Fold change vs veh, DTX4 / RFU, TFCP2 / Fold change vs veh, TFCP2 / RFU, GMCL1 /// GMCL1P1 / Fold change vs veh, GMCL1 /// GMCL1P1 / RFU, AEBP2 / Fold change vs veh, AEBP2 / RFU, SNHG1 /// SNORD22 /// SNORD25 /// SNORD26 /// SNORD27 /// SNORD28 /// SNORD29 /// SNORD31 / Fold change vs veh, SNHG1 /// SNORD22 /// SNORD25 /// SNORD26 /// SNORD27 /// SNORD28 /// SNORD29 /// SNORD31 / Fold change (Aza/veh), C12orf56 (ProbeSet 11735607_a_at) / Fold change (ACY-1035/veh), C12orf56 (ProbeSet 11735607_a_at) / Fold change (Aza/veh), FGFR1OP (ProbeSet 11751329_s_at) / Fold change (ACY-1035/veh), FGFR1OP (ProbeSet 11751329_s_at) / Fold change (Aza/veh), VPS36 (ProbeSet 11739960_a_at) / Fold change (ACY-1035/veh), VPS36 (ProbeSet 11739960_a_at) / RFU SYPL1 (11715823_x_at) / Fold change /veh SYPL1 (11715823_x_at) / RFU IGFBP7 (11715501_s_at) / Fold change /veh IGFBP7 (11715501_s_at) / RFU REEP3 (11722064_at) / Fold change /veh REEP3 (11722064_at) / RFU IGLL1 (11728026_x_at) / Fold change /veh IGLL1 (11728026_x_at): dose or concentration left out as unconfirmed
# Settings: ProbeSet 11728443_a_at; LIST B
structure (smiles),measurement,value
Nc1ncn([C@@H]2O[C@H](CO)[C@@H](O)[C@H]2O)c(=O)n1 [azacitidine],"RFU, TAOK1",59.03 RFU
